The compounds below were run against T1, recombinant human KLK5 (Homo sapiens, UniProt Q9Y337) (assay: Kallikrein (KLK) 5 enzymatic assay (Boc-VPR-AMC fluorogenic substrate)). Conditions: recombinant human KLK5 0.1 μg/well, Boc-VPR-AMC 100 μM, pH 7.5, room temperature, 1% DMSO; tested a minimum of three times.
T1 construct: purchased Novoprotein or R&D Systems C415 or 1108-SE
T1 sequence (Q9Y337 23-293): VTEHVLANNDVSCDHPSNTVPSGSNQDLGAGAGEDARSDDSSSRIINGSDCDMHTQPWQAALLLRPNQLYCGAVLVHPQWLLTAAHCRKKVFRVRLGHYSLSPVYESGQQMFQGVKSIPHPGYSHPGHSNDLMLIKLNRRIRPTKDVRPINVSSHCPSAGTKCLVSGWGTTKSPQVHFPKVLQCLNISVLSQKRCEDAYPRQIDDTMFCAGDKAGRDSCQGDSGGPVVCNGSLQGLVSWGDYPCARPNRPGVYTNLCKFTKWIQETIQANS
Type: biochemical
Procedure, shortened: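 Recombinant human KLK5 (0.1 μg/well) was preincubated with compound at room temperature in 0.1 M NaH2PO4, pH 7.5, 1% DMSO, then started with 100 μM Boc-VPR-AMC. The rate was followed at 380/460 nm, and IC50 came from percent inhibition relative to enzyme alone, with at least three runs.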

IC50 [µM] | SMILES
< 1 | CCC(=O)N1CCC2(CC1)CC(Oc1cccc(C)c1CC(=O)O)c1cc(-c3cccc4c(N)nccc34)ccc12 (stereo not drawn) [Compound 387c, 2-(2-((5-(1-aminoisoquinolin-5-yl)-1′-propionyl-2,3-dihydrospiro[indene-1,4′-piperidin]-3-yl)oxy)-6-methylphenyl)acetic acid]
< 1 | CCC(=O)N1CCC2(CC1)CC(Oc1cccc(C)c1CC(=O)O)c1cc(-c3ccc4ccnc(N)c4c3)ccc12 (stereo not drawn) [Compound 388b, 2-(2-((5-(1-aminoisoquinolin-7-yl)-1′-propionyl-2,3-dihydrospiro[indene-1,4′-piperidin]-3-yl)oxy)-6-methylphenyl)acetic acid]
< 1 | Nc1nccc2ccc(-c3ccc4c(c3)C(Oc3ccccc3CC(=O)O)CC43CCCCC3)cc12 (stereo not drawn) [Compound 391b, 2-(2-((5′-(1-aminoisoquinolin-7-yl)-2′,3′-dihydrospiro[cyclohexane-1,1′-inden]-3′-yl)oxy)phenyl)acetic acid]
< 1 | COC(=O)N1CCC2(CC1)C[C@H](Oc1ccccc1CC(=O)O)c1cc(-c3cccc4c(N)nccc34)ccc12 [Compound 396d, (S)-2-(2-((5-(1-aminoisoquinolin-5-yl)-1′-(methoxycarbonyl)-2,3-dihydrospiro[indene-1,4′-piperidin]-3-yl)oxy)phenyl)acetic acid]
< 1 | COC(=O)N1CCC2(CC1)C[C@H](Oc1ccccc1CC(=O)O)c1cc(-c3ccc4ccnc(N)c4c3)ccc12 [Compound 397b, (S)-2-(2-((5-(1-aminoisoquinolin-7-yl)-1′-(methoxycarbonyl)-2,3-dihydrospiro[indene-1,4′-piperidin]-3-yl)oxy)phenyl)acetic acid]
< 1 | COC(=O)N1CCC2(CC1)C[C@@H](Oc1ccccc1CC(=O)O)c1cc(-c3cccc4c(N)nccc34)ccc12 [Compound 398d, (R)-2-(2-((5-(1-aminoisoquinolin-5-yl)-1′-(methoxycarbonyl)-2,3-dihydrospiro[indene-1,4′-piperidin]-3-yl)oxy)phenyl)acetic acid]
< 1 | COC(=O)N1CCC2(CC1)C[C@@H](Oc1ccccc1CC(=O)O)c1cc(-c3ccc4ccnc(N)c4c3)ccc12 [Compound 399b, (R)-2-(2-((5-(1-aminoisoquinolin-7-yl)-1′-(methoxycarbonyl)-2,3-dihydrospiro[indene-1,4′-piperidin]-3-yl)oxy)phenyl)acetic acid]
< 1 | Nc1nccc2c(-c3ccc4c(c3)C(COc3ccccc3CC(=O)O)=CC43CCCC3)cccc12 [Compound 400f, 2-(2-((5′-(1-aminoisoquinolin-5-yl)spiro[cyclopentane-1,1′-inden]-3′-yl)methoxy)phenyl)acetic acid]
< 1 | Nc1nccc2ccc(-c3ccc4c(c3)C(COc3ccccc3CC(=O)O)=CC43CCCC3)cc12 [Compound 401b, 2-(2-((5′-(1-aminoisoquinolin-7-yl)spiro[cyclopentane-1,1′-inden]-3′-yl)methoxy)phenyl)acetic acid]
1 to 10 | Nc1nccc2ccc(-c3ccc4c(c3)C(COc3ccccc3CC(=O)O)CC43CCCC3)cc12 (stereo not drawn) [Compound 402a, 2-(2-((5′-(1-aminoisoquinolin-7-yl)-2′,3′-dihydrospiro[cyclopentane-1,1′-inden]-3′-yl)methoxy)phenyl)acetic acid]
< 1 | Nc1nccc2c(-c3ccc4c(c3)C(COc3ccccc3CC(=O)O)CC43CCCC3)cccc12 (stereo not drawn) [Compound 403a, 2-(2-((5′-(1-aminoisoquinolin-5-yl)-2′,3′-dihydrospiro[cyclopentane-1,1′-inden]-3′-yl)methoxy)phenyl)acetic acid]
< 1 | CCOC(=O)N1CCC2(CC1)CC(Oc1cccc(C)c1CC(=O)O)c1cc(-c3ccc4ccnc(N)c4c3)ccc12 (stereo not drawn) [Compound 404c, 2-(2-((5-(1-aminoisoquinolin-7-yl)-1′-(ethoxycarbonyl)-2,3-dihydrospiro[indene-1,4′-piperidin]-3-yl)oxy)-6-methylphenyl)acetic acid]
< 1 | CCOC(=O)N1CCC2(CC1)CC(Oc1cccc(C)c1CC(=O)O)c1cc(-c3cccc4c(N)nccc34)ccc12 (stereo not drawn) [Compound 405b, 2-(2-((5-(1-aminoisoquinolin-5-yl)-1′-(ethoxycarbonyl)-2,3-dihydrospiro[indene-1,4′-piperidin]-3-yl)oxy)-6-methylphenyl)acetic acid]
< 1 | CC(=O)N1CCC2(CC1)CC(Oc1cccc(C)c1CC(=O)O)c1cc(-c3ccc4ccnc(N)c4c3)ccc12 (stereo not drawn) [Compound 406c, 2-(2-((1′-acetyl-5-(1-aminoisoquinolin-7-yl)-2,3-dihydrospiro[indene-1,4′-piperidin]-3-yl)oxy)-6-methylphenyl)acetic acid]
< 1 | CC(=O)N1CCC2(CC1)CC(Oc1cccc(C)c1CC(=O)O)c1cc(-c3cccc4c(N)nccc34)ccc12 (stereo not drawn) [Compound 407b, 2-(2-((1′-acetyl-5-(1-aminoisoquinolin-5-yl)-2,3-dihydrospiro[indene-1,4′-piperidin]-3-yl)oxy)-6-methylphenyl)acetic acid]
< 1 | COC(=O)N1CCC2(CC1)CC(Oc1cc(F)ccc1CC(=O)O)c1cc(-c3ccc4ccnc(N)c4c3)ccc12 (stereo not drawn) [Compound 408f, 2-(2-((5-(1-aminoisoquinolin-7-yl)-1′-(methoxycarbonyl)-2,3-dihydrospiro[indene-1,4′-piperidin]-3-yl)oxy)-4-fluorophenyl)acetic acid]
< 1 | COC(=O)N1CCC2(CC1)CC(Oc1cc(F)ccc1CC(=O)O)c1cc(-c3cccc4c(N)nccc34)ccc12 (stereo not drawn) [Compound 409b, 2-(2-((5-(1-aminoisoquinolin-5-yl)-1′-(methoxycarbonyl)-2,3-dihydrospiro[indene-1,4′-piperidin]-3-yl)oxy)-4-fluorophenyl)acetic acid]
< 1 | COC(=O)N1CCC2(CC1)CC(Oc1cc(C#N)ccc1CC(=O)O)c1cc(-c3ccc4ccnc(N)c4c3)ccc12 (stereo not drawn) [Compound 410d, 2-(2-((5-(1-aminoisoquinolin-7-yl)-1′-(methoxycarbonyl)-2,3-dihydrospiro[indene-1,4′-piperidin]-3-yl)oxy)-4-cyanophenyl)acetic acid]
< 1 | COC(=O)N1CCC2(CC1)CC(Oc1cc(C#N)ccc1CC(=O)O)c1cc(-c3cccc4c(N)nccc34)ccc12 (stereo not drawn) [Compound 411b, 2-(2-((5-(1-aminoisoquinolin-5-yl)-1′-(methoxycarbonyl)-2,3-dihydrospiro[indene-1,4′-piperidin]-3-yl)oxy)-4-cyanophenyl)acetic acid]
< 1 | COC(=O)N1CCC2(CC1)CC(Oc1cc(C)ccc1CC(=O)O)c1cc(-c3ccc4ccnc(N)c4c3)ccc12 (stereo not drawn) [Compound 412c, 2-(2-((5-(1-aminoisoquinolin-7-yl)-1′-(methoxycarbonyl)-2,3-dihydrospiro[indene-1,4′-piperidin]-3-yl)oxy)-4-methylphenyl)acetic acid]
< 1 | COC(=O)N1CCC2(CC1)CC(Oc1cc(C)ccc1CC(=O)O)c1cc(-c3cccc4c(N)nccc34)ccc12 (stereo not drawn) [Compound 413b, 2-(2-((5-(1-aminoisoquinolin-5-yl)-1′-(methoxycarbonyl)-2,3-dihydrospiro[indene-1,4′-piperidin]-3-yl)oxy)-4-methylphenyl)acetic acid]

SMILES | IC50 [µM]
CC(C)COC(=O)N1CCC2(CC1)CC(Oc1ccccc1CC(=O)O)c1cc(-c3ccc4ccnc(N)c4c3)ccc12 (stereo not drawn) [Compound 389c, 2-(2-((5-(1-aminoisoquinolin-7-yl)-1′-(isobutoxycarbonyl)-2,3-dihydrospiro[indene-1,4′-piperidin]-3-yl)oxy)phenyl)acetic acid] | < 1
CC(C)COC(=O)N1CCC2(CC1)CC(Oc1ccccc1CC(=O)O)c1cc(-c3cccc4c(N)nccc34)ccc12 (stereo not drawn) [Compound 390b, 2-(2-((5-(1-aminoisoquinolin-5-yl)-1′-(isobutoxycarbonyl)-2,3-dihydrospiro[indene-1,4′-piperidin]-3-yl)oxy)phenyl)acetic acid] | < 1
CC(C)(C)OC(=O)N1CCC2(CC1)C[C@H](Oc1ccccc1CC(=O)O)c1cc(-c3cccc4c(N)nccc34)ccc12 [Compound 392f, (S)-2-(2-((5-(1-aminoisoquinolin-5-yl)-1′-(tert-butoxycarbonyl)-2,3-dihydrospiro[indene-1,4′-piperidin]-3-yl)oxy)phenyl)acetic acid] | < 1
CC(C)(C)OC(=O)N1CCC2(CC1)C[C@H](Oc1ccccc1CC(=O)O)c1cc(-c3ccc4ccnc(N)c4c3)ccc12 [Compound 393b, (S)-2-(2-((5-(1-aminoisoquinolin-7-yl)-1′-(tert-butoxycarbonyl)-2,3-dihydrospiro[indene-1,4′-piperidin]-3-yl)oxy)phenyl)acetic acid] | < 1
CC(C)(C)OC(=O)N1CCC2(CC1)C[C@@H](Oc1ccccc1CC(=O)O)c1cc(-c3cccc4c(N)nccc34)ccc12 [Compound 394e, (R)-2-(2-((5-(1-aminoisoquinolin-5-yl)-1′-(tert-butoxycarbonyl)-2,3-dihydrospiro[indene-1,4′-piperidin]-3-yl)oxy)phenyl)acetic acid] | < 1
CC(C)(C)OC(=O)N1CCC2(CC1)C[C@@H](Oc1ccccc1CC(=O)O)c1cc(-c3ccc4ccnc(N)c4c3)ccc12 [Compound 395b, (R)-2-(2-((5-(1-aminoisoquinolin-7-yl)-1′-(tert-butoxycarbonyl)-2,3-dihydrospiro[indene-1,4′-piperidin]-3-yl)oxy)phenyl)acetic acid] | < 1

Source: patent US20240239752A1, “BICYCLIC HETEROAROMATIC INHIBITORS OF KLK5” (BioCryst Pharmaceuticals, Inc., priority 2021, published 2024)
